Tests used:
Rattus norvegicus [1] = species on record: Rattus norvegicus; type: toxicity, organism-based, Sprague-Dawley; settings: in vivo, po, 24 h, route oral GAVAGE, time 1 day, vehicle 100 % WATER
Description: DrugMatrix - Regimen: Single

Rattus norvegicus [2] = species on record: Rattus norvegicus; assay: DrugMatrix - Regimen: Daily Repeat; type: toxicity, organism-based, Sprague-Dawley; set-up: regimen Daily Repeat, gender Male, age 6-8 weeks; settings: in vivo, po, […], route oral GAVAGE, time 14 day, vehicle 100 % WATER
[3] = 0 mg/kg, vehicle control, tissue Blood, dose level Control
[4] = 0 mg/kg, vehicle control, tissue Plasma, dose level Control
[5] = […], tissue Blood, dose 2.5 mg/Kg, dose level High
[6] = […], tissue Plasma, dose 2.5 mg/Kg, dose level High
[7] = 0 mg/kg, tissue Blood, dose level Control
[8] = 0 mg/kg, tissue Plasma, dose level Control
[9] = tissue Blood, dose 2.5 mg/Kg, dose level High
[10] = tissue Plasma, dose 2.5 mg/Kg, dose level High

MERCURIC CHLORIDE
ABSOLUTE EOSINOPHIL (Rattus norvegicus [1]; [3]): 91.83 CELLS/uL
ABSOLUTE LYMPHOCYTE (Rattus norvegicus [1]; [3]): 13862.33 CELLS/uL
ABSOLUTE MONOCYTE (Rattus norvegicus [1]; [3]): 437.83 CELLS/uL
ABSOLUTE SEGMENTED NEUTROPHIL (Rattus norvegicus [1]; [3]): 1358 CELLS/uL
BASOPHIL (Rattus norvegicus [1]; [3]): 0%
EOSINOPHIL (Rattus norvegicus [1]; [3]): 0.5%
ERYTHROCYTE COUNT (Rattus norvegicus [1]; [3]): 5.12 x10E6/uL
HEMATOCRIT (Rattus norvegicus [1]; [3]): 31.77%
HEMOGLOBIN (Rattus norvegicus [1]; [3]): 11.8 G/DL
LEUKOCYTE COUNT (Rattus norvegicus [1]; [3]): 15.75 x10E3/uL
MEAN CORPUSCULAR HEMOGLOBIN (Rattus norvegicus [1]; [3]): 23.07 pg
MEAN CORPUSCULAR HEMOGLOBIN CONCENTRATION (Rattus norvegicus [1]; [3]): 37.17 G/DL
MONOCYTE (Rattus norvegicus [1]; [3]): 2.67%
NEUTROPHIL (Rattus norvegicus [1]; [3]): 8.5%
NUCLEATED RED BLOOD CELLS (Rattus norvegicus [1]; [3]): 0 /100WBC
PLATELET COUNT (Rattus norvegicus [1]; [3]): 1113.83 x10E3/uL
ALANINE AMINOTRANSFERASE (Rattus norvegicus [1]; [4]): 45.5 u/L
ALKALINE PHOSPHATASE (Rattus norvegicus [1]; [4]): 343.83 u/L
ASPARTATE AMINOTRANSFERASE (Rattus norvegicus [1]; [4]): 70.67 u/L
BLOOD UREA NITROGEN (Rattus norvegicus [1]; [4]): 13 mg/dL
CARBON DIOXIDE (Rattus norvegicus [1]; [4]): 33 mmol/L
CHLORIDE (Rattus norvegicus [1]; [4]): 100.33 MEQ/L
CHOLESTEROL (Rattus norvegicus [1]; [4]): 76.67 mg/dL
CREATININE (Rattus norvegicus [1]; [4]): 0.12 mg/dL
LACTATE DEHYDROGENASE (Rattus norvegicus [1]; [4]): 116.67 u/L
LIPASE (Rattus norvegicus [1]; [4]): 8 u/L
POTASSIUM (Rattus norvegicus [1]; [4]): 6.33 MEQ/L
TOTAL BILIRUBIN (Rattus norvegicus [1]; [4]): 0.18 mg/dL
TOTAL PROTEIN (Rattus norvegicus [1]; [4]): 5.77 G/DL
ABSOLUTE EOSINOPHIL (Rattus norvegicus [1]; [5]): 210.67 CELLS/uL
ABSOLUTE LYMPHOCYTE (Rattus norvegicus [1]; [5]): 10744.33 CELLS/uL
ABSOLUTE MONOCYTE (Rattus norvegicus [1]; [5]): 466.33 CELLS/uL
ABSOLUTE SEGMENTED NEUTROPHIL (Rattus norvegicus [1]; [5]): 1512 CELLS/uL
BASOPHIL (Rattus norvegicus [1]; [5]): 0%
ERYTHROCYTE COUNT (Rattus norvegicus [1]; [5]): 5.65 x10E6/uL
HEMATOCRIT (Rattus norvegicus [1]; [5]): 34.1%
HEMOGLOBIN (Rattus norvegicus [1]; [5]): 12.63 G/DL
LEUKOCYTE COUNT (Rattus norvegicus [1]; [5]): 12.93 x10E3/uL
LYMPHOCYTE (Rattus norvegicus [1]; [5]): 84.67%
MEAN CORPUSCULAR HEMOGLOBIN (Rattus norvegicus [1]; [5]): 22.43 pg
MEAN CORPUSCULAR HEMOGLOBIN CONCENTRATION (Rattus norvegicus [1]; [5]): 37.1 G/DL
MEAN CORPUSCULAR VOLUME (Rattus norvegicus [1]; [5]): 60.37 fL
MONOCYTE (Rattus norvegicus [1]; [5]): 3.33%
NEUTROPHIL (Rattus norvegicus [1]; [5]): 10.67%
NUCLEATED RED BLOOD CELLS (Rattus norvegicus [1]; [5]): 0 /100WBC
PLATELET COUNT (Rattus norvegicus [1]; [5]): 1117 x10E3/uL
ALANINE AMINOTRANSFERASE (Rattus norvegicus [1]; [6]): 52.67 u/L
ALBUMIN (Rattus norvegicus [1]; [6]): 4.3 G/DL
ALKALINE PHOSPHATASE (Rattus norvegicus [1]; [6]): 366 u/L
ASPARTATE AMINOTRANSFERASE (Rattus norvegicus [1]; [6]): 77.67 u/L
BLOOD UREA NITROGEN (Rattus norvegicus [1]; [6]): 13 mg/dL
CARBON DIOXIDE (Rattus norvegicus [1]; [6]): 26 mmol/L
CHOLESTEROL (Rattus norvegicus [1]; [6]): 82.67 mg/dL
CREATININE (Rattus norvegicus [1]; [6]): 0.16 mg/dL
LACTATE DEHYDROGENASE (Rattus norvegicus [1]; [6]): 175 u/L
LIPASE (Rattus norvegicus [1]; [6]): 8 u/L
PHOSPHORUS (Rattus norvegicus [1]; [6]): 12.07 mg/dL
POTASSIUM (Rattus norvegicus [1]; [6]): 6.17 MEQ/L
TOTAL BILIRUBIN (Rattus norvegicus [1]; [6]): 0.17 mg/dL
TOTAL PROTEIN (Rattus norvegicus [1]; [6]): 6.23 G/DL
URIC ACID (Rattus norvegicus [1]; [6]): 1.7 mg/dL
ABSOLUTE BASOPHIL (Rattus norvegicus [2]; [7]): 0 CELLS/uL
ABSOLUTE EOSINOPHIL (Rattus norvegicus [2]; [7]): 117.17 CELLS/uL
ABSOLUTE MONOCYTE (Rattus norvegicus [2]; [7]): 419 CELLS/uL
ABSOLUTE SEGMENTED NEUTROPHIL (Rattus norvegicus [2]; [7]): 2139.67 CELLS/uL
BASOPHIL (Rattus norvegicus [2]; [7]): 0%
EOSINOPHIL (Rattus norvegicus [2]; [7]): 0.67%
ERYTHROCYTE COUNT (Rattus norvegicus [2]; [7]): 6.61 x10E6/uL
HEMATOCRIT (Rattus norvegicus [2]; [7]): 37.58%
HEMOGLOBIN (Rattus norvegicus [2]; [7]): 13.8 G/DL
LEUKOCYTE COUNT (Rattus norvegicus [2]; [7]): 15.45 x10E3/uL
LYMPHOCYTE (Rattus norvegicus [2]; [7]): 83%
MEAN CORPUSCULAR HEMOGLOBIN (Rattus norvegicus [2]; [7]): 20.87 pg
MEAN CORPUSCULAR HEMOGLOBIN CONCENTRATION (Rattus norvegicus [2]; [7]): 36.72 G/DL
MEAN CORPUSCULAR VOLUME (Rattus norvegicus [2]; [7]): 56.85 fL
MONOCYTE (Rattus norvegicus [2]; [7]): 2.67%
NEUTROPHIL (Rattus norvegicus [2]; [7]): 13.67%
NUCLEATED RED BLOOD CELLS (Rattus norvegicus [2]; [7]): 0 /100WBC
PLATELET COUNT (Rattus norvegicus [2]; [7]): 1108.33 x10E3/uL
ALANINE AMINOTRANSFERASE (Rattus norvegicus [2]; [8]): 56.83 u/L
ALKALINE PHOSPHATASE (Rattus norvegicus [2]; [8]): 354.33 u/L
ASPARTATE AMINOTRANSFERASE (Rattus norvegicus [2]; [8]): 93.33 u/L
BLOOD UREA NITROGEN (Rattus norvegicus [2]; [8]): 16.67 mg/dL
CARBON DIOXIDE (Rattus norvegicus [2]; [8]): 27.83 mmol/L
CHOLESTEROL (Rattus norvegicus [2]; [8]): 62.33 mg/dL
CREATININE (Rattus norvegicus [2]; [8]): 0.2 mg/dL
GLUCOSE (Rattus norvegicus [2]; [8]): 137 mg/dL
LACTATE DEHYDROGENASE (Rattus norvegicus [2]; [8]): 407 u/L
LIPASE (Rattus norvegicus [2]; [8]): 10.83 u/L
PHOSPHORUS (Rattus norvegicus [2]; [8]): 11.45 mg/dL
POTASSIUM (Rattus norvegicus [2]; [8]): 6.51 MEQ/L
SODIUM (Rattus norvegicus [2]; [8]): 145.57 MEQ/L
TOTAL BILIRUBIN (Rattus norvegicus [2]; [8]): 0.2 mg/dL
TOTAL PROTEIN (Rattus norvegicus [2]; [8]): 6.3 G/DL
ABSOLUTE BASOPHIL (Rattus norvegicus [2]; [9]): 0 CELLS/uL
ABSOLUTE EOSINOPHIL (Rattus norvegicus [2]; [9]): 269 CELLS/uL
ABSOLUTE LYMPHOCYTE (Rattus norvegicus [2]; [9]): 14982 CELLS/uL
ABSOLUTE MONOCYTE (Rattus norvegicus [2]; [9]): 560.2 CELLS/uL
ABSOLUTE SEGMENTED NEUTROPHIL (Rattus norvegicus [2]; [9]): 2068.8 CELLS/uL
BASOPHIL (Rattus norvegicus [2]; [9]): 0%
EOSINOPHIL (Rattus norvegicus [2]; [9]): 1.6%
ERYTHROCYTE COUNT (Rattus norvegicus [2]; [9]): 6.64 x10E6/uL
HEMATOCRIT (Rattus norvegicus [2]; [9]): 37.88%
LEUKOCYTE COUNT (Rattus norvegicus [2]; [9]): 17.88 x10E3/uL
LYMPHOCYTE (Rattus norvegicus [2]; [9]): 83.6%
MEAN CORPUSCULAR HEMOGLOBIN (Rattus norvegicus [2]; [9]): 20.94 pg
MEAN CORPUSCULAR HEMOGLOBIN CONCENTRATION (Rattus norvegicus [2]; [9]): 36.7 G/DL
MEAN CORPUSCULAR VOLUME (Rattus norvegicus [2]; [9]): 57.06 fL
MONOCYTE (Rattus norvegicus [2]; [9]): 3.2%
NEUTROPHIL (Rattus norvegicus [2]; [9]): 11.6%
NUCLEATED RED BLOOD CELLS (Rattus norvegicus [2]; [9]): 0 /100WBC
PLATELET COUNT (Rattus norvegicus [2]; [9]): 1034.6 x10E3/uL
ALANINE AMINOTRANSFERASE (Rattus norvegicus [2]; [10]): 59.6 u/L
ALKALINE PHOSPHATASE (Rattus norvegicus [2]; [10]): 375 u/L
ASPARTATE AMINOTRANSFERASE (Rattus norvegicus [2]; [10]): 95.2 u/L
BLOOD UREA NITROGEN (Rattus norvegicus [2]; [10]): 17 mg/dL
CARBON DIOXIDE (Rattus norvegicus [2]; [10]): 23.4 mmol/L
CHOLESTEROL (Rattus norvegicus [2]; [10]): 68 mg/dL
CREATININE (Rattus norvegicus [2]; [10]): 0.22 mg/dL
GLUCOSE (Rattus norvegicus [2]; [10]): 151.4 mg/dL
LACTATE DEHYDROGENASE (Rattus norvegicus [2]; [10]): 417.8 u/L
LIPASE (Rattus norvegicus [2]; [10]): 10.2 u/L
PHOSPHORUS (Rattus norvegicus [2]; [10]): 11.36 mg/dL
POTASSIUM (Rattus norvegicus [2]; [10]): 6.37 MEQ/L
SODIUM (Rattus norvegicus [2]; [10]): 147.12 MEQ/L
TOTAL BILIRUBIN (Rattus norvegicus [2]; [10]): 0.18 mg/dL
TOTAL PROTEIN (Rattus norvegicus [2]; [10]): 6.74 G/DL
URIC ACID (Rattus norvegicus [2]; [10]): 2.42 mg/dL
